Drawing on publication PMC8161055, “Synthesis and α-Glucosidase Inhibition Activity of 2-[3-(Benzoyl/4-bromobenzoyl)-4-hydroxy-1,1-dioxido-2H-benzo[e][1,2]thiazin-2-yl]-N-arylacetamides: An In Silico and Biochemical Approach” (Molecules, 2021), this text covers IC50, inhibition and melting point for 11 compounds.

SMILES strings stand for the structures. Bounds are passed on as bounds.

For data set [1], the target named is aldose-reductase. Also noted: method as in PMID 22036211. As to conditions: cited from earlier work.
Data set [2] deals with T1, α-glucosidase (Saccharomyces cerevisiae, UniProt P53341).
T1 construct: purchased Sigma-Aldrich, Munich, Germany
As to the kind of experiment: biochemical. The format is biochemical. As to conditions: for inhibition at 200 µM: read-out: Inhibitions (%). Here is the method: In vitro analysis of all the synthesized compounds was performed in order to justify the validity of in silico outcomes. Results were found in good agreement with the in silico study. […] A general spectrophotometric technique was used to perform the α-glucosidase inhibition assay with slight modifications. […] The experiment was repeated thrice and inhibition percentages were calculated using the following formula. % Inhibition = [(A control − A sample) / A control] × 100(1) where ‘A’ stands for absorbance.

The test system of data set [3] is SARS-CoV-2. Also noted: method as in PMID 33160024. As to conditions: cited from earlier work.
Data set [4] relates to human 11β-HSD1. Also noted: method as in PMID 21212546. As to conditions: cited from earlier work.

T1 sequence (P53341 whole entry): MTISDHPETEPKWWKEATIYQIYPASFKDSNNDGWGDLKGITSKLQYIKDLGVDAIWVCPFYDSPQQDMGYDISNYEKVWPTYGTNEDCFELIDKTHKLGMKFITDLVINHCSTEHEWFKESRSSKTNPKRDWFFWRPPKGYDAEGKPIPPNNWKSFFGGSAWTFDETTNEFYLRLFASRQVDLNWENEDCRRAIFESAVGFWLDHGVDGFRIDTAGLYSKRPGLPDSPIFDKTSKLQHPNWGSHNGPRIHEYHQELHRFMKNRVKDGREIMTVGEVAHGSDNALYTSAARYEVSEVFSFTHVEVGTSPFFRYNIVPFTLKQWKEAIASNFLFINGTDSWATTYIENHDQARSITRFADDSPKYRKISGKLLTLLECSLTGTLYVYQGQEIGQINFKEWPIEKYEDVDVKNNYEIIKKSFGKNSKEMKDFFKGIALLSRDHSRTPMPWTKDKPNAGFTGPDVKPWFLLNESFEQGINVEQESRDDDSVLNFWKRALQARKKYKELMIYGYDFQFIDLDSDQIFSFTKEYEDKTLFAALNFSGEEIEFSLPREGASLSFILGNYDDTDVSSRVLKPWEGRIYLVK

As a reminder, the IC50 is the point on the concentration scale where inhibition reaches its midpoint. Consider `O=C(O)C=C1CN(Cc2ccc(Br)cc2F)S(=O)(=O)c2ccccc21` [2-(2-(4-bromo-2-fluorobenzyl)-1,1-dioxido-2H-benzo[e][1,2]thiazin-4(3H)-ylidene)acetic acid], for which the IC50 in data set [1] was 110 nM.
The melting point is the temperature of the solid-liquid transition. The compound `Cc1cccc(NC(=O)CN2C(C(=O)c3ccc(Br)cc3)=C(O)c3ccccc3S2(=O)=O)c1` [Compound 12e, 2-(3-(4-Bromobenzoyl)-4-hydroxy-1,1-dioxido-2H-benzo[e][1,2]thiazin-2-yl)-N-(m-tolyl)acetamide] gave a melting point of 143 to 144 °C. Moreover, in data set [2], the half-inhibitory concentration (IC50) came out at 35100 nM and the inhibition at 200 µM came out at 71%.
`Cc1ccc(NC(=O)CN2C(C(=O)c3ccc(Br)cc3)=C(O)c3ccccc3S2(=O)=O)cc1` [Compound 12f, 2-(3-(4-Bromobenzoyl)-4-hydroxy-1,1-dioxido-2H-benzo[e][1,2]thiazin-2-yl)-N-(p-tolyl)acetamide] had a melting point of 190 to 192 °C. The inhibition at 200 µM in data set [2] was 20%.
In turn, `O=C(CN1C(C(=O)c2ccc(Br)cc2)=C(O)c2ccccc2S1(=O)=O)Nc1ccccc1[N+](=O)[O-]` [Compound 12g, 2-(3-(4-Bromobenzoyl)-4-hydroxy-1,1-dioxido-2H-benzo[e][1,2]thiazin-2-yl)-N-(2-nitrophenyl)acetamide] had a melting point of 177 to 178 °C. In addition, in data set [2], half-maximal inhibition (IC50) was put at 24200 nM and the inhibition at 200 µM came to 76%.
The compound `O=C(CN1C(C(=O)c2ccc(Br)cc2)=C(O)c2ccccc2S1(=O)=O)Nc1cccc([N+](=O)[O-])c1` [Compound 12h, 2-(3-(4-Bromobenzoyl)-4-hydroxy-1,1-dioxido-2H-benzo[e][1,2]thiazin-2-yl)-N-(3-nitrophenyl)acetamide] returned a melting point of 208 to 209 °C. For the same compound, in data set [2], the IC50 is above 100000 nM and the inhibition at 200 µM stood at 58%.
For the compound `O=C(CN1C(C(=O)c2ccc(Br)cc2)=C(O)c2ccccc2S1(=O)=O)Nc1ccc([N+](=O)[O-])cc1` [Compound 12i, 2-(3-(4-Bromobenzoyl)-4-hydroxy-1,1-dioxido-2H-benzo[e][1,2]thiazin-2-yl)-N-(4-nitrophenyl)acetamide], the melting point was in the range of 210 to 212 °C. The inhibition at 200 µM in data set [2] was determined as 33%.
On the same counts, the results for `O=C(CN1C(C(=O)c2ccc(Br)cc2)=C(O)c2ccccc2S1(=O)=O)Nc1cccc(Br)c1` [Compound 12j, 2-(3-(4-Bromobenzoyl)-4-hydroxy-1,1-dioxido-2H-benzo[e][1,2]thiazin-2-yl)-N-(3-bromophenyl)acetamide] are 145 to 147 °C and 12%.
The matching figures for `O=C(CN1C(C(=O)c2ccc(Br)cc2)=C(O)c2ccccc2S1(=O)=O)Nc1ccc(Br)cc1` [Compound 12k, 2-(3-(4-Bromobenzoyl)-4-hydroxy-1,1-dioxido-2H-benzo[e][1,2]thiazin-2-yl)-N-(4-bromophenyl)acetamide]: 200 to 203 °C and 48%.
Regarding `COc1ccccc1NC(=O)CN1C(C(=O)c2ccc(Br)cc2)=C(O)c2ccccc2S1(=O)=O` [Compound 12l, 2-(3-(4-Bromobenzoyl)-4-hydroxy-1,1-dioxido-2H-benzo[e][1,2]thiazin-2-yl)-N-(2-methoxyphenyl)acetamide], the melting point was in the range of 186 to 187 °C. Also, in data set [2], the inhibition at 200 µM was 34%.
Turning to `O=C(CN1C(C(=O)Nc2ccc(F)c(Cl)c2)=C(O)c2ccc(F)cc2S1(=O)=O)Nc1ccc(C(F)(F)F)cc1` [compound 4], the IC50 in data set [3] is 880 nM.
On to `O=C(CN1C(C(=O)Nc2ccccc2)=C(O)c2ccccc2S1(=O)=O)Nc1cccc(C(F)(F)F)c1` [derivative 3], for which the IC50 in data set [4] was 41 nM.
